# Experimental data from patent US7235577B1 (priority 2000, dated 2007).
# Experiments:
# human T-lymphocytes = assay: In vitro toxicity, propidium iodide uptake, 48 h; format: cell-based
# Experimental: (§1) The in vitro toxicity was performed as follows.
# Jurkat-CRAC = assay: Selectivity patch clamp, Jurkat CRAC channels; format: cell-based, human; conditions: monovalent currents with Na+ as charge carrier
# Experimental: (§2) L929 cells stably expressing mKv1.1, rKv1.2, mKv1.3, and mKv3.1 and MEL cells stably expressing hKv1.5 have been previously described (Grissmer 1994, Mol. Pharmacol. 45: 1227). hKv1.4 and rKv4.2 were stably expressed in LTK (HK1–7). Channel expression was induced 8–12 h before the electrophysiological experiments by 4 μM dexamethasone (Sigma). HEK-293 cells stably expressing the skeletal muscle sodium channel hSkM1 (SCN4A) were generated in the laboratory of Dr. F. Lehmann-Horn. HEK-293 cells stably expressing hSloα were obtained from Dr. Andrew Tinker (Center for Clinical Pharmacology, University College London). L929, MEL, LTK and HEK cells were maintained in DMEM containing 10% heat-inactivated fetal calf serum (Summit Biotechnology, Fort Collins, Colo.) and 250 μg/ml G418 (Life Technologies, Inc.). Rat basophilic leukemia (RBL) cells were maintained in Eagle's minimum essential medium with 2 mM L-glutamine and 10% fetal calf serum. CHO cell were maintained in F12K media (ATCC). Human leukemic Jurkat E6–1 cells were cultured in RPMI 1640 supplemented with 10% fetal calf serum and 1 mM L-glutamine. T84 cells were maintained in a 1:1 mixture of Ham's F12 medium and DMEM with 2.5 mM L-glutamine and 10% fetal calf serum.
# (§3) Recordings from the Jurkat SKCa channel were made in K^+ aspartate Ringer (Na^+ was replaced by K^+) with the same internal pipette solution. […]
# mKv1.1 = molecular target: T1, mKv1.1 (Mus musculus, UniProt P16388); assay: Selectivity patch clamp, L929 cells expressing mKv1.1; format: cell-based
# T1 construct: expressed in transfected cells; host or cells: L929
# Experimental: as §2, §3
# mKv1.3 = molecular target: T2, mKv1.3 (Mus musculus, UniProt P16390); assay: Selectivity patch clamp, L929 cells expressing mKv1.3; format: cell-based
# T2 construct: expressed in transfected cells; host or cells: L929
# Experimental: as §2, §3
# CYP3A4 = CYP3A4 (Homo sapiens, UniProt P08684); assay: in vitro; conditions: human
# Experimental: (§4) The test substances shown in Table 8 were evaluated for their inhibitory effect on the catalytic activity of human cytochrome P450 enzyme. Cytochrome P450 3A4 (CYP3A4) is involved in many drug-drug interactions and in many other pathways in the body including the catabolism of steroids and xenobiotics. Inhibition of this enzyme was measured in 96 well plates with 7-benzyloxy-4-trifluoro-methylcoumarin (BFC) as the substrate and cDNA-derived enzymes in microsomes prepared from baculovirus-infected insect cells.
# (§5) The inhibition study consisted of the determination of inhibition by the test substance on CYP3A4 catalytic activity. […] The compounds were prepared as 10 mM stock solutions in acetonitrile. Metabolism of the model substrate was assayed by the production of 7-hydroxy-4-trifluoromethylcoumarin metabolite. The metabolite was detected by fluorescence.
# (§6) Table 10 below provides a list of the name of enzymes examined, the catalog number of the microsomes used as a source of the enzyme, the concentration of the model substrate used, the amount of enzyme used, the final buffer concentration, and the positive control compound.
# (§7) Assays were conducted in 96 well microtiter plates. The BFC substrate was initially prepared in acetonitrile. […] Six wells were used for one test. […] For the positive controls, 12 wells in a row were used for one test. The positive control inhibitor/enzyme combination was examined in duplicate rows. Wells 1 to 8 contained serial 1:3 dilutions of the inhibitors. The highest inhibitor concentration were as described in the table above. Wells 9 and 10 contained no inhibitor and wells 11 and 12 were blanks for background fluorescence (stop solution added before the enzyme).
# (§8) After buffer, cofactors and inhibitor addition, the plates were pre-warmed to 37° C. Incubations were initiated by the addition of pre-warmed enzyme and substrate. The final cofactor concentrations were 1.3 mM NADP, 3.3 mM glucose-6-phosphate and 0.4 U/ml glucose-6-phosphate dehydrogenase. The final incubation volume was 0.2 ml. Incubations were carried out for 30 minutes [CYP3A4 (BFC)] and stopped by the addition of 0.075 ml of 80% acetonitrile-20% 0.5M Tris. Fluorescence per well was measured using a BMG FLUOstar fluorescence plate reader. The BFC metabolite 7-hydroxy-4-trifluoromethyl-coumarin was measured using an excitation wavelength of 410 nm and emission wavelength of 538 nm.
# [1] = molecular target: human cytochrome P450 3A4 (CYP3A4) (Homo sapiens, UniProt P08684); assay: in vitro
# Experimental: as §4, §5, §6, §7, §8
# hKv1.5 = molecular target: T3, hKv1.5 (Homo sapiens, UniProt P22460); assay: Selectivity patch clamp, MEL cells expressing hKv1.5; format: cell-based
# T3 construct: expressed in transfected cells; host or cells: MEL
# Experimental: as §2, §3
# COS-7 chloride channel = assay: Selectivity patch clamp, native chloride channels in COS-7 cells; format: cell-based, African green monkey; conditions: native chloride channel of COS-7 cells
# Experimental: Electrophysiological experiments were carried out in the whole-cell configuration of the patch-clamp technique using an EPC-9 amplifier (HEKA Elektronik, Lambrecht Germany) interfaced to a computer running acquisition and analysis software (Pulse and Pulsfit; HEKA Elektronik). Pipettes were pulled from soft glass capillaries, coated with Sylgard (Dow-Corning, Midland, Mich.), and fire polished to resistances of 2.0–4.5 MΩ measured in the bath. COS-7 cells were trypsinized and plated on glass coverslips 3 h before measurement. […] To prevent activation of the native chloride channels in COS-7 cells an aspartate Ringer solution was used as an external solution (160 mM Na^+ aspartate, 4.5 mM KCl, 2 mM CaCl2, 1 mM MgCl2, 5 mM HEPES, adjusted to pH 7.4 with NaOH, with an osmolarity of 290–310 mosM). 200 ms voltage ramps from −120 mV to 40 mV every 10 s were used. The holding potential in all experiments was −80 mV. Series resistance compensation was not employed. The reduction of slope conductance at −80 mV was used to determine the Kd-value by fitting the values to the Hill equation with a Hill coefficient of unity.
# as §3
# rKir2.1 = molecular target: T4, rKir2.1 (Rattus norvegicus, UniProt Q64273); assay: Selectivity patch clamp, RBL inward rectifier; format: cell-based; conditions: RBL cells; slope conductance at −110 mV
# T4 construct: endogenous in cells; host or cells: RBL (rat basophilic leukemia)
# Experimental: as §2, §3
# MEL cells = assay: In vitro toxicity, propidium iodide uptake, 48 h; format: cell-based, murine
# Experimental: as §1
# L929 cells = assay: In vitro toxicity, propidium iodide uptake, 48 h; format: cell-based, murine
# Experimental: as §1
# rKv1.2 = molecular target: T5, rKv1.2 (Rattus norvegicus, UniProt P63142); assay: Selectivity patch clamp, L929 cells expressing rKv1.2; format: cell-based
# T5 construct: expressed in transfected cells; host or cells: L929
# Experimental: as §2, §3
# Sequence of human cytochrome P450 3A4 (CYP3A4) (P08684 whole entry): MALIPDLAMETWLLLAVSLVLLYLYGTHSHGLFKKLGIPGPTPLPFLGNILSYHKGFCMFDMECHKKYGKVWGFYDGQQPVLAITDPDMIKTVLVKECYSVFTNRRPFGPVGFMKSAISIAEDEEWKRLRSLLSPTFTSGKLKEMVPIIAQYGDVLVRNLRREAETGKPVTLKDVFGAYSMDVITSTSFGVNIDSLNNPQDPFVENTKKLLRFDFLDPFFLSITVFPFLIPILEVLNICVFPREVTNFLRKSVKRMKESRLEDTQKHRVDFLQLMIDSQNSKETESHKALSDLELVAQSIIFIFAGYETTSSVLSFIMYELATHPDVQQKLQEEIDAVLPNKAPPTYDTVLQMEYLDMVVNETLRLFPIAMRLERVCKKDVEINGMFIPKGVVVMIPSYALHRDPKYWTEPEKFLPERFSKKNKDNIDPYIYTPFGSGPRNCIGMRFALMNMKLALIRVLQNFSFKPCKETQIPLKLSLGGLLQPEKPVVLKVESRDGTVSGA
# T1 sequence (P16388 whole entry): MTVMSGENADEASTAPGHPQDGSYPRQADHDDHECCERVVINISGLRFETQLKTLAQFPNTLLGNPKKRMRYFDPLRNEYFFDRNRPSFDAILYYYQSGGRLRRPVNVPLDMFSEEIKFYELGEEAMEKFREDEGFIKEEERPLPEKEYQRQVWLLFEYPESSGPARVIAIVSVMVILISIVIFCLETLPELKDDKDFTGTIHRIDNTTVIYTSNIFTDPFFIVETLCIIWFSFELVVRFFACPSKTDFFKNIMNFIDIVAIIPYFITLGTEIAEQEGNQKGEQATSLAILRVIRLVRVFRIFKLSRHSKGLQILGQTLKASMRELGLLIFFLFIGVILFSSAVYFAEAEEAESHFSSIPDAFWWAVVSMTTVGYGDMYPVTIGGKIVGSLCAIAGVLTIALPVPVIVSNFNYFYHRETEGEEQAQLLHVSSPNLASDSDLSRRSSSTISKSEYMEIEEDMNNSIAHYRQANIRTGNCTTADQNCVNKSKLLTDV
# Sequence of CYP3A4 (P08684 whole entry): as the sequence (P08684 whole entry) above
# T5 sequence (P63142 whole entry): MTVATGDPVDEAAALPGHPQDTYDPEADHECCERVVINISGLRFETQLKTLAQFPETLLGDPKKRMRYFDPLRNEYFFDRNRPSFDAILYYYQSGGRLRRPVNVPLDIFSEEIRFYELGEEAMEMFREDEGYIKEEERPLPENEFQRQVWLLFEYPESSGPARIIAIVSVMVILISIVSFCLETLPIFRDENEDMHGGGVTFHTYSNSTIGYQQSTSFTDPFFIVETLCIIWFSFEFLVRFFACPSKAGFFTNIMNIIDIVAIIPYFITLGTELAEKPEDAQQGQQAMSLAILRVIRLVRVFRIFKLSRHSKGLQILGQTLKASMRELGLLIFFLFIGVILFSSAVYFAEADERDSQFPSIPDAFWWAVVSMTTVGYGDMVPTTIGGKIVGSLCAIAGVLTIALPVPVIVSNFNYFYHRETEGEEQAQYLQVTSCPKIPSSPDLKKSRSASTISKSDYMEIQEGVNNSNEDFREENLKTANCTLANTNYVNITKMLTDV
# T4 sequence (Q64273 whole entry): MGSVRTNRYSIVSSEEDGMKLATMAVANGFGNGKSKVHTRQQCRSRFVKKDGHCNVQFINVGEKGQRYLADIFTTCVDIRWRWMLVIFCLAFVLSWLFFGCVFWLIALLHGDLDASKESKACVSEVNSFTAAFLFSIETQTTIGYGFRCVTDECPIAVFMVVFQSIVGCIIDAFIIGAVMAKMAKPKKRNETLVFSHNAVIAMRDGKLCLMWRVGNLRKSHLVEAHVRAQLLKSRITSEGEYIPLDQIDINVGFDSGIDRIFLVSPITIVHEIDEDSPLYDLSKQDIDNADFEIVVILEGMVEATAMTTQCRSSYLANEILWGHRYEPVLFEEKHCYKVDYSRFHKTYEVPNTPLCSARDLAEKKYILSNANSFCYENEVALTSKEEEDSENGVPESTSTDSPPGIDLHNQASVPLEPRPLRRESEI
# T3 sequence (P22460 whole entry): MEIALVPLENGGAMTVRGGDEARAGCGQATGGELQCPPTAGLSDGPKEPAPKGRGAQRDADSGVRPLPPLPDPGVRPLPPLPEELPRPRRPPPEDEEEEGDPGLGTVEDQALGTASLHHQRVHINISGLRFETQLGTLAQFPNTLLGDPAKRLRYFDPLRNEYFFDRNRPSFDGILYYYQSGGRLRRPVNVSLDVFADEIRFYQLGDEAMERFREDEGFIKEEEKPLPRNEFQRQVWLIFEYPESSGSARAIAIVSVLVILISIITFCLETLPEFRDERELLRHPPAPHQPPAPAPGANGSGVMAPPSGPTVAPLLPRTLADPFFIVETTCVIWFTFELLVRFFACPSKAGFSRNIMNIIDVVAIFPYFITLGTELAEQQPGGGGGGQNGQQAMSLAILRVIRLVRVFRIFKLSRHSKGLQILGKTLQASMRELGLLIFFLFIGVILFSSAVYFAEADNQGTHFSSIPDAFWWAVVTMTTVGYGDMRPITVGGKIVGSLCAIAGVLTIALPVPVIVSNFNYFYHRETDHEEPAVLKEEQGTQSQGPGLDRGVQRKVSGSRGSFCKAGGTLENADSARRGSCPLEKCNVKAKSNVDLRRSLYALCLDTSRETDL
# T2 sequence (P16390 whole entry): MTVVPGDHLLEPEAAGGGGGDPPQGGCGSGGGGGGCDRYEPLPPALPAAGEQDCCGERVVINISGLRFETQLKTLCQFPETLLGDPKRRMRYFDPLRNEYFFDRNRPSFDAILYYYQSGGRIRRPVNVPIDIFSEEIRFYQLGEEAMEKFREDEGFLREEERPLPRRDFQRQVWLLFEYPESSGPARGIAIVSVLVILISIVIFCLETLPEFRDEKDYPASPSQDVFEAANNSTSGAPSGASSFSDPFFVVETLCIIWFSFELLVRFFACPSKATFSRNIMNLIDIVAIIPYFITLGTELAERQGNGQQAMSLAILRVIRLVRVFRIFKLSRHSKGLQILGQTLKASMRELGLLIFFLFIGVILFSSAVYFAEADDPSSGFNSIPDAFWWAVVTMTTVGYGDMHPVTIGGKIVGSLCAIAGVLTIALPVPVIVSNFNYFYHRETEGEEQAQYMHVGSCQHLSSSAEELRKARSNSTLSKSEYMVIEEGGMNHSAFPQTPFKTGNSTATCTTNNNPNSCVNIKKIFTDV
structure (smiles),measurement,setting,value
"Clc1ccccc1C(c1ccccc1)(c1ccccc1)n1cccn1 [Compound T34, 1-[(2-Chlorophenyl)diphenylmethyl]-1H-pyrazole]",percentage of dead cells (PI uptake),human T-lymphocytes; 2 μM,6.2%
same,percentage of dead cells (PI uptake),human T-lymphocytes; 5 μM,7.0%
same,Block of Jurkat-CRAC (Ca),Jurkat-CRAC,no effect at 10 μM
same,Kd,mKv1.1,9.5 ± 1 µM
same,Kd,mKv1.3,5 ± 0.35 µM
same,"inhibition at 30 min, 10 μM",CYP3A4,-77.5%
same,EC50 for inhibition of CYP3A4,[1]; T34 tested up to 10 μM,No inhibitory
same,Inhibition of CYP3A4 activity,[1]; up to 10 μM,does not inhibit the activity of CYP3A4
same,Kd,hKv1.5,7 ± 0.62 µM
same,Block of COS-7 (Cl),COS-7 chloride channel,no effect at 10 μM
same,Block of rKir2.1,rKir2.1,no effect at 10 μM
same,percentage of dead cells (PI uptake),MEL cells; 2 μM,6.2%
same,percentage of dead cells (PI uptake),MEL cells; 5 μM,5.8%
same,percentage of dead cells (PI uptake),L929 cells; 2 μM,4.6%
same,percentage of dead cells (PI uptake),L929 cells; 5 μM,7.5%
same,Kd,rKv1.2,4.5 ± 0.52 µM
